{
  "source": "paper PMC9950073",
  "about": "“Alleviation of arthritis through prevention of neutrophil extracellular traps by an orally available inhibitor of protein arginine deiminase 4” (Scientific Reports, 2023)",
  "key": {"human recombinant PAD6": {"molecular_target": "T1, human recombinant PAD6 (Homo sapiens, UniProt Q6TGC4)", "T1 construct": "purchased Signal Chem T1065-3", "T1 sequence (Q6TGC4 1-694)": "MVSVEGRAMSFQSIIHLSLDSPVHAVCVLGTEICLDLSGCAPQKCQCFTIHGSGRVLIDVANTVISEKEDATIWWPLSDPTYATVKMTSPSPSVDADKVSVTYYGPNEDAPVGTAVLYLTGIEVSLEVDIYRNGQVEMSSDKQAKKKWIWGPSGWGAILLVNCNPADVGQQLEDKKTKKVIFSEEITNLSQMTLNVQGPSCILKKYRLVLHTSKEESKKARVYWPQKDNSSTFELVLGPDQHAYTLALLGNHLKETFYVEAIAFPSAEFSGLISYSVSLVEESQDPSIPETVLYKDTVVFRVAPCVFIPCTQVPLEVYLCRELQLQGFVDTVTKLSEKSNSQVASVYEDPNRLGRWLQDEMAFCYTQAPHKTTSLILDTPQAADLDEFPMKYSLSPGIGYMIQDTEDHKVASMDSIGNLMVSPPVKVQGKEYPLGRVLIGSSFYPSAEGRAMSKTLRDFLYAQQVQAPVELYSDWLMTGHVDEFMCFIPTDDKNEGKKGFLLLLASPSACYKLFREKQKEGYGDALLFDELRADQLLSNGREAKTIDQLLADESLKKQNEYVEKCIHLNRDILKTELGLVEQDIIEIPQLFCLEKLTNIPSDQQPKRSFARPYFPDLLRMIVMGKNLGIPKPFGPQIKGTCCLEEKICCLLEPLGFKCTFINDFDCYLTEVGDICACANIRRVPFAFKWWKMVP", "experiment": "PAD6 selectivity biochemical assay measuring ammonia release", "details": "10 semi-log concentrations, highest concentration tested 30 µM"}, "human neutrophils": {"system": "human neutrophils", "experiment": "In vitro NET assay, human neutrophils", "format": "cell-based", "details": "10 μM, ionomycin 4 µM 4 h", "excerpt": "All blood samples from healthy donors who participated in this study were obtained after informed consent in accordance with relevant guidelines and regulations given by the ACE Independent ethics committee for Jubilant Biosys Ltd and Office of Clinical Investigations at Boston Children’s Hospital. The ACE Independent ethics committee, Bangalore, approved the use of human whole blood/PBMC/Enriched Subset in Jubilant Biosys Ltd investigations, Drug Controller General of India (DCGI) Reg No. ECR/141/Indt/KA/2013. Briefly, 10 mL K2EDTA vacutainers were used to collect fresh blood from healthy donors (BD vacutainer, Catalog No: BD 367525). A total of 50 ml of blood was taken from a single, healthy human donor. Neutrophils were isolated from human blood using the EasySep Direct Human Neutrophil Isolation Kit, according to the manufacturer's instructions (Stem Cell Technology, Catalog No: 19666). […]\nMouse or human neutrophils were resuspended in HEPES-supplemented phenol red-free RPMI1640 medium and 1.5 × 10^4 cells were seeded per well in a 96-well plate. […] Images were obtained with a Zeiss Axiovert 200 M wide-field fluorescence microscope (Zeiss, Oberkochen, Germany) with the Zeiss AxioVision software. The percentages of H4Cit positive neutrophils and neutrophil extracellular traps (NETs) were calculated by quantifying more than 200 randomly selected cells. […]"}, "CYP2D6": {"molecular_target": "T2, CYP2D6 (Homo sapiens, UniProt P10635)", "T2 construct": "from tissue; host or cells: human liver microsomes", "T2 sequence (P10635 whole entry)": "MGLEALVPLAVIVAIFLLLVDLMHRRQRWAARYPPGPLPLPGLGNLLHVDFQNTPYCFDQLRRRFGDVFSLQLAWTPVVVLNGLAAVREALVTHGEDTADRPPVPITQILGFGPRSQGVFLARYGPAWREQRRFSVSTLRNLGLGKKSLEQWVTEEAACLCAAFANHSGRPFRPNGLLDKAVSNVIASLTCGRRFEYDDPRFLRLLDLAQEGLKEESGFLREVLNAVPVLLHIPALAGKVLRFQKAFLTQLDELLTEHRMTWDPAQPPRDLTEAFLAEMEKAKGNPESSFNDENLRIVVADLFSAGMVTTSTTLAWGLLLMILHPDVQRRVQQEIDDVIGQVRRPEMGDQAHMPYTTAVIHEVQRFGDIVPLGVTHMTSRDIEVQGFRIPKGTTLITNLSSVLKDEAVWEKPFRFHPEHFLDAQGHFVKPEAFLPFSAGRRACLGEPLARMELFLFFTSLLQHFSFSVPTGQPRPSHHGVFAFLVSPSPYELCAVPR", "experiment": "CYP inhibition in human liver microsome, CYP2D6", "format": "in vitro ADME", "description": "CYP inhibition: Human liver microsome (0.1–0.5 mg/mL for various CYPs) and appropriate probe substrates (2.5–20 µM) were incubated in potassium phosphate buffer with or without JBI-589 for 5 min at 37 °C. The reaction was initiated by addition of NADPH (1 mM), incubated at 37 °C for 10 min and quenched (0.5% Formic acid in internal standard (IS) containing ACN). Samples were then centrifuged and taken for LC–MS/MS analysis. Percent change in metabolite formation for each substrate under above conditions using formula: Percent inhibition = [1 − (test area ratio/control area ratio)] *100."}, "PBMCs": {"system": "PBMCs", "experiment": "Cell Titer Glo viability assay, PBMC", "format": "cell-based, human", "details": "24 h, up to 10 µM", "description": "In a K2EDTA vacutainer, 50 mL blood from a healthy human donor was collected, diluted 1:1 with PBS, and gently layered on Histopaque-1077. The tube was centrifuged at 400 g for 30 min at room temperature in a swinging bucket rotor without brakes or acceleration. After centrifugation, the tubes were gently removed from the centrifuge to avoid disturbing the layers of RBC at the bottom, PBMC in the middle, and clear supernatant at the top. Plasma and platelet-rich upper layer was aspirated using a sterile pipette leaving the mononuclear cell layer (buffy coat) undisturbed at the interphase. This buffy coat layer was transferred with care to a fresh conical 50 mL tube, resuspended in PBS buffer and the tube was centrifuged for 10 min at 300 g at room temperature, and the resultant cell pellet was resuspended in complete RPMI medium. After repeating this step twice, the resultant isolated cells were used for the experiments.\nThe CellTiter-Glo luminescent cell viability assay was performed on neutrophils/peripheral blood mononuclear cells according to the manufacturer’s instructions (Promega, catalog number: G7570)[35]. Breifly, 0.25 million cells of Neutrophils /PBMC were seeded in a black 96 well clear bottom plate. Compound was added at desired concentrations in 1% DMSO. […] Luminescence was recorded with Perkin Elmer envision 2103 multilabel reader."}, "Solubility": {"experiment": "Solubility", "format": "physicochemical", "excerpt": "Supplement 41598_2023_30246_MOESM1_ESM.docx, table 2: Supplementary Table S2. In vitro ADME parameters of JBI-589 | column: 90"}},
  "data": [
    {"smiles": "Cc1c(-c2cc3ccccc3n2Cc2ccc(F)cc2)nc2cc(C(=O)N3CCC[C@@H](N)C3)ccn12", "note": "[JBI-589, (R)-(3-aminopiperidin-1-yl)(2-(1-(4-fluorobenzyl)-1H-indol-2-yl)-3-methylimidazo[1,2-a]pyridin-7-yl)methanone]", "values": [
      {"measurement": "inhibitory activity against PAD6", "setting": "human recombinant PAD6", "result": "did not have any inhibitory activity"},
      {"measurement": "H4Cit positivity", "setting": "human neutrophils", "result": "the same effect was confirmed"},
      {"measurement": "NET formation", "setting": "human neutrophils", "result": "the same effect was confirmed"},
      {"measurement": "inhibition at 10 min, 10 µM", "setting": "CYP2D6; human liver microsomes, 10 µM, human liver microsome, read-out: CYP2D6 inhibition (% inh @10 µM)", "result": "< 50", "unit": "%"},
      {"measurement": "IC50", "setting": "CYP2D6; predicted from % inhibition, text says major CYPs tested", "result": "> 10", "unit": "µM"},
      {"measurement": "viability of PBMCs", "setting": "PBMCs", "result": "minimal or no changes"},
      {"measurement": "solubility", "setting": "Solubility", "result": 90, "unit": "µM"}
    ]}
  ]
}
